In the supplement of paper PMC10307832:

Columns and labels:
Experiment in all cases: relative viability (nuclei count vs DMSO), 5 days (fraction); higher = more cells survive
Irinotecan + Lapatinib = compound: CCc1c2c(nc3ccc(OC(=O)N4CCC(N5CCCCC5)CC4)cc13)-c1cc3c(c(=O)n1C2)COC(=O)[C@]3(O)CC [Irinotecan] + CS(=O)(=O)CCNCc1ccc(-c2ccc3ncnc(Nc4ccc(OCc5cccc(F)c5)c(Cl)c4)c3c2)o1 [Lapatinib] (partner 2 µM)
Procedure, shortened: (§1)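 Values are medians from duplicate plates. Each reflects relative viability, defined as the nuclei count of treated wells over that of vehicle wells. Lung cancer cell lines in 1536-well plates were pin-tool dosed one day after seeding with one drug alone or with a fixed anchor-drug dose plus five library-drug doses (not always all listed) in √10 steps, then fixed, stained and imaged at 4× after 5 days.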

RU-SKI 43 + Lapatinib = compound: CC[C@@H](C)CNCC(=O)N1CCC2=C([C@@H]1COC3=CC=CC(=C3)C)C=CS2 [RU-SKI 43] + CS(=O)(=O)CCNCc1ccc(-c2ccc3ncnc(Nc4ccc(OCc5cccc(F)c5)c(Cl)c4)c3c2)o1 [Lapatinib] (partner 2 µM)
Procedure, shortened: as §1

Irinotecan + Dasatinib = compound: CCc1c2c(nc3ccc(OC(=O)N4CCC(N5CCCCC5)CC4)cc13)-c1cc3c(c(=O)n1C2)COC(=O)[C@]3(O)CC [Irinotecan] + Cc1nc(Nc2ncc(C(=O)Nc3c(C)cccc3Cl)s2)cc(N2CCN(CCO)CC2)n1 [Dasatinib] (partner 0.075 µM)
Procedure, shortened: as §1

Irinotecan + Trametinib = compound: CCc1c2c(nc3ccc(OC(=O)N4CCC(N5CCCCC5)CC4)cc13)-c1cc3c(c(=O)n1C2)COC(=O)[C@]3(O)CC [Irinotecan] + CC(=O)Nc1cccc(-n2c(=O)n(C3CC3)c(=O)c3c(Nc4ccc(I)cc4F)n(C)c(=O)c(C)c32)c1 [Trametinib] (partner 0.02 µM)
Procedure, shortened: as §1

Cell Line NCI-H727 has a relative viability (Irinotecan + Lapatinib; first compound 0.6325 µM) of 0.339, a relative viability (Irinotecan + Lapatinib; first compound 2 µM) of 0.503 and a relative viability (Irinotecan + Lapatinib; first compound 6.325 µM) of 0.445. The relative viability (Irinotecan + Lapatinib; first compound 20 µM) was 0.369, the relative viability (RU-SKI 43 + Lapatinib; first compound 0.1 µM) was 0.797 and the relative viability (RU-SKI 43 + Lapatinib; first compound 0.3162 µM) was 0.905. It also gave a relative viability (RU-SKI 43 + Lapatinib; first compound 1 µM) of 0.84, a relative viability (RU-SKI 43 + Lapatinib; first compound 3.162 µM) of 0.839 and a relative viability (RU-SKI 43 + Lapatinib; first compound 10 µM) of 0.927. The relative viability (Irinotecan + Dasatinib; first compound 0.6325 µM) was 0.243, the relative viability (Irinotecan + Dasatinib; first compound 2 µM) was 0.467 and the relative viability (Irinotecan + Dasatinib; first compound 6.325 µM) was 0.437. The relative viability (Irinotecan + Dasatinib; first compound 20 µM) was 0.438, the relative viability (Irinotecan + Trametinib; first compound 0.6325 µM) was 0.373 and the relative viability (Irinotecan + Trametinib; first compound 2 µM) was 0.336. For the same cell line, the relative viability (Irinotecan + Trametinib; first compound 6.325 µM) was 0.382 and the relative viability (Irinotecan + Trametinib; first compound 20 µM) was 0.346.

Work on EMC-BAC-2 yielded a relative viability (Irinotecan + Lapatinib; first compound 0.6325 µM) of 0.774, a relative viability (Irinotecan + Lapatinib; first compound 2 µM) of 0.578 and a relative viability (Irinotecan + Lapatinib; first compound 6.325 µM) of 0.27. For the same cell line, the relative viability (Irinotecan + Lapatinib; first compound 20 µM) was 0.246, the relative viability (RU-SKI 43 + Lapatinib; first compound 0.1 µM) was 0.924 and the relative viability (RU-SKI 43 + Lapatinib; first compound 0.3162 µM) was 0.961. The relative viability (RU-SKI 43 + Lapatinib; first compound 1 µM) was 0.933, the relative viability (RU-SKI 43 + Lapatinib; first compound 3.162 µM) was 0.983 and the relative viability (RU-SKI 43 + Lapatinib; first compound 10 µM) was 0.916. The relative viability (Irinotecan + Dasatinib; first compound 0.6325 µM) was 0.292, the relative viability (Irinotecan + Dasatinib; first compound 2 µM) was 0.324 and the relative viability (Irinotecan + Dasatinib; first compound 6.325 µM) was 0.215. For the same cell line, the relative viability (Irinotecan + Dasatinib; first compound 20 µM) was 0.304, the relative viability (Irinotecan + Trametinib; first compound 0.6325 µM) was 0.867 and the relative viability (Irinotecan + Trametinib; first compound 2 µM) was 0.766. The relative viability (Irinotecan + Trametinib; first compound 6.325 µM) was 0.474 and the relative viability (Irinotecan + Trametinib; first compound 20 µM) was 0.201.

ChaGo-K-1 was tested, and the relative viability (Irinotecan + Dasatinib; first compound 0.6325 µM) was 0.351, the relative viability (Irinotecan + Dasatinib; first compound 2 µM) was 0.474 and the relative viability (Irinotecan + Dasatinib; first compound 6.325 µM) was 0.236. It also gave a relative viability (Irinotecan + Dasatinib; first compound 20 µM) of 0.178, a relative viability (Irinotecan + Trametinib; first compound 0.6325 µM) of 0.296 and a relative viability (Irinotecan + Trametinib; first compound 2 µM) of 0.24. For the same cell line, the relative viability (Irinotecan + Trametinib; first compound 6.325 µM) was 0.21 and the relative viability (Irinotecan + Trametinib; first compound 20 µM) was 0.221.

LXF-289 showed a relative viability (Irinotecan + Lapatinib; first compound 0.6325 µM) of 0.881, a relative viability (Irinotecan + Lapatinib; first compound 2 µM) of 0.883 and a relative viability (Irinotecan + Lapatinib; first compound 6.325 µM) of 0.315. It also gave a relative viability (Irinotecan + Lapatinib; first compound 20 µM) of 0.236, a relative viability (RU-SKI 43 + Lapatinib; first compound 0.1 µM) of 0.906 and a relative viability (RU-SKI 43 + Lapatinib; first compound 0.3162 µM) of 0.88. It also gave a relative viability (RU-SKI 43 + Lapatinib; first compound 1 µM) of 0.979, a relative viability (RU-SKI 43 + Lapatinib; first compound 3.162 µM) of 0.989 and a relative viability (RU-SKI 43 + Lapatinib; first compound 10 µM) of 0.878. The relative viability (Irinotecan + Dasatinib; first compound 0.6325 µM) was 0.138, the relative viability (Irinotecan + Dasatinib; first compound 2 µM) was 0.265 and the relative viability (Irinotecan + Dasatinib; first compound 6.325 µM) was 0.172. For the same cell line, the relative viability (Irinotecan + Dasatinib; first compound 20 µM) was 0.139, the relative viability (Irinotecan + Trametinib; first compound 0.6325 µM) was 0.653 and the relative viability (Irinotecan + Trametinib; first compound 2 µM) was 0.328. It also gave a relative viability (Irinotecan + Trametinib; first compound 6.325 µM) of 0.268 and a relative viability (Irinotecan + Trametinib; first compound 20 µM) of 0.197.

With HCC-827 the relative viability (Irinotecan + Lapatinib; first compound 0.6325 µM) was 0.178, the relative viability (Irinotecan + Lapatinib; first compound 2 µM) was 0.222 and the relative viability (Irinotecan + Lapatinib; first compound 6.325 µM) was 0.133. The relative viability (Irinotecan + Lapatinib; first compound 20 µM) was 0.16, the relative viability (RU-SKI 43 + Lapatinib; first compound 0.1 µM) was 0.189 and the relative viability (RU-SKI 43 + Lapatinib; first compound 0.3162 µM) was 0.197. For the same cell line, the relative viability (RU-SKI 43 + Lapatinib; first compound 1 µM) was 0.211, the relative viability (RU-SKI 43 + Lapatinib; first compound 3.162 µM) was 0.213 and the relative viability (RU-SKI 43 + Lapatinib; first compound 10 µM) was 0.162. It also gave a relative viability (Irinotecan + Dasatinib; first compound 0.6325 µM) of 0.459, a relative viability (Irinotecan + Dasatinib; first compound 2 µM) of 0.219 and a relative viability (Irinotecan + Dasatinib; first compound 6.325 µM) of 0.247. For the same cell line, the relative viability (Irinotecan + Dasatinib; first compound 20 µM) was 0.227, the relative viability (Irinotecan + Trametinib; first compound 0.6325 µM) was 0.512 and the relative viability (Irinotecan + Trametinib; first compound 2 µM) was 0.383. The relative viability (Irinotecan + Trametinib; first compound 6.325 µM) was 0.202 and the relative viability (Irinotecan + Trametinib; first compound 20 µM) was 0.203.

HCC-44 gave a relative viability (Irinotecan + Lapatinib; first compound 0.6325 µM) of 0.96, a relative viability (Irinotecan + Lapatinib; first compound 2 µM) of 0.73 and a relative viability (Irinotecan + Lapatinib; first compound 6.325 µM) of 0.273. The relative viability (Irinotecan + Lapatinib; first compound 20 µM) was 0.382, the relative viability (RU-SKI 43 + Lapatinib; first compound 0.1 µM) was 1.12 and the relative viability (RU-SKI 43 + Lapatinib; first compound 0.3162 µM) was 1.02. For the same cell line, the relative viability (RU-SKI 43 + Lapatinib; first compound 1 µM) was 1.15, the relative viability (RU-SKI 43 + Lapatinib; first compound 3.162 µM) was 1.04 and the relative viability (RU-SKI 43 + Lapatinib; first compound 10 µM) was 0.995. It also gave a relative viability (Irinotecan + Trametinib; first compound 0.6325 µM) of 1.01, a relative viability (Irinotecan + Trametinib; first compound 2 µM) of 0.868 and a relative viability (Irinotecan + Trametinib; first compound 6.325 µM) of 0.561. It also gave a relative viability (Irinotecan + Trametinib; first compound 20 µM) of 0.421.

Cell Line NCI-H2023 has a relative viability (Irinotecan + Lapatinib; first compound 0.6325 µM) of 0.484, a relative viability (Irinotecan + Lapatinib; first compound 2 µM) of 0.408 and a relative viability (Irinotecan + Lapatinib; first compound 6.325 µM) of 0.129. The relative viability (Irinotecan + Lapatinib; first compound 20 µM) was 0.045, the relative viability (RU-SKI 43 + Lapatinib; first compound 0.1 µM) was 0.773 and the relative viability (RU-SKI 43 + Lapatinib; first compound 0.3162 µM) was 0.808. The relative viability (RU-SKI 43 + Lapatinib; first compound 1 µM) was 1.05, the relative viability (RU-SKI 43 + Lapatinib; first compound 3.162 µM) was 0.849 and the relative viability (RU-SKI 43 + Lapatinib; first compound 10 µM) was 0.726. For the same cell line, the relative viability (Irinotecan + Dasatinib; first compound 0.6325 µM) was 0.595, the relative viability (Irinotecan + Dasatinib; first compound 2 µM) was 0.67 and the relative viability (Irinotecan + Dasatinib; first compound 6.325 µM) was 0.241. The relative viability (Irinotecan + Dasatinib; first compound 20 µM) was 0.0645, the relative viability (Irinotecan + Trametinib; first compound 0.6325 µM) was 0.589 and the relative viability (Irinotecan + Trametinib; first compound 2 µM) was 0.646. For the same cell line, the relative viability (Irinotecan + Trametinib; first compound 6.325 µM) was 0.261 and the relative viability (Irinotecan + Trametinib; first compound 20 µM) was 0.0947.

NCI-H1734 was tested, and the relative viability (Irinotecan + Lapatinib; first compound 0.6325 µM) was 0.883, the relative viability (Irinotecan + Lapatinib; first compound 2 µM) was 0.588 and the relative viability (Irinotecan + Lapatinib; first compound 6.325 µM) was 0.186. The relative viability (Irinotecan + Lapatinib; first compound 20 µM) was 0.191, the relative viability (RU-SKI 43 + Lapatinib; first compound 0.1 µM) was 1.08 and the relative viability (RU-SKI 43 + Lapatinib; first compound 0.3162 µM) was 1.08. The relative viability (RU-SKI 43 + Lapatinib; first compound 1 µM) was 1.1, the relative viability (RU-SKI 43 + Lapatinib; first compound 3.162 µM) was 1.08 and the relative viability (RU-SKI 43 + Lapatinib; first compound 10 µM) was 0.998. It also gave a relative viability (Irinotecan + Dasatinib; first compound 2 µM) of 0.385, a relative viability (Irinotecan + Dasatinib; first compound 6.325 µM) of 0.218 and a relative viability (Irinotecan + Dasatinib; first compound 20 µM) of 0.155. The relative viability (Irinotecan + Trametinib; first compound 2 µM) was 0.261, the relative viability (Irinotecan + Trametinib; first compound 6.325 µM) was 0.188 and the relative viability (Irinotecan + Trametinib; first compound 20 µM) was 0.188.

For PC-14, the relative viability (Irinotecan + Lapatinib; first compound 0.6325 µM) was 0.314, the relative viability (Irinotecan + Lapatinib; first compound 2 µM) was 0.262 and the relative viability (Irinotecan + Lapatinib; first compound 6.325 µM) was 0.15. The relative viability (Irinotecan + Lapatinib; first compound 20 µM) was 0.16, the relative viability (RU-SKI 43 + Lapatinib; first compound 0.1 µM) was 0.362 and the relative viability (RU-SKI 43 + Lapatinib; first compound 0.3162 µM) was 0.362. It also gave a relative viability (RU-SKI 43 + Lapatinib; first compound 1 µM) of 0.414, a relative viability (RU-SKI 43 + Lapatinib; first compound 3.162 µM) of 0.335 and a relative viability (RU-SKI 43 + Lapatinib; first compound 10 µM) of 0.239. The relative viability (Irinotecan + Dasatinib; first compound 0.6325 µM) was 0.273, the relative viability (Irinotecan + Dasatinib; first compound 2 µM) was 0.244 and the relative viability (Irinotecan + Dasatinib; first compound 6.325 µM) was 0.127. For the same cell line, the relative viability (Irinotecan + Dasatinib; first compound 20 µM) was 0.088, the relative viability (Irinotecan + Trametinib; first compound 0.6325 µM) was 0.744 and the relative viability (Irinotecan + Trametinib; first compound 2 µM) was 0.436. It also gave a relative viability (Irinotecan + Trametinib; first compound 6.325 µM) of 0.164 and a relative viability (Irinotecan + Trametinib; first compound 20 µM) of 0.137.
